Data taken from patent US20240318182A1, “METHODS OF TREATING OR PREVENTING SPINAL MUSCULAR ATROPHY” (BIOGEN MA INC., priority 2019, published 2024).

Legend:
[1] = system: subjects with infantile-onset SMA; assay: Exposure-response and motor function / motor milestones in nusinersen clinical studies; type: in vivo, human
Method: During the nusinersen clinical development program, an exploratory exposure-response analysis was conducted using data for 14 subjects with infantile-onset SMA who received nusinersen. […] All subjects received maintenance doses of 12 mg every 4 months after Day 85. Separation of the response curves for the 2 cohorts began around Day 29 and became wider over the course of the study.

[2] = system: pNf-H; assay: Plasma pNf-H biomarker in nusinersen clinical trials; type: in vivo, human; details: SMA types 1, 2 and presymptomatic infants
Excerpt: In nusinersen clinical trials with SMA types 1, 2 and presymptomatic infants, plasma pNf-H differentiated SMA individuals from healthy controls. […] Thus assessing the levels of neurofilament (e.g., pNf-H and/or NfL) can be a helpful biomarker prior or during treatment.

[3] = system: nonhuman primate; assay: Nonhuman primate safety studies; type: in vivo
[4] = system: subjects with infantile-onset SMA; assay: PK/PD (Emax) model of CSF Ctrough versus change from baseline in CHOP-INTEND; set-up: species or system human; details: model projection
Excerpt: Dashed (long), solid, and dashed (shorter) line represents the predicted PK/PD relationship when Emax was fixed at 10, 25, and 40, respectively. The observed data are divided based on 10 quantiles of CSF Ctrough values. The empty and filled circles represent the mean observed and predicted change in CHOP-INTEND from baseline, respectively.

[5] = human, in vivo
Method: In studies to explore the relationship between nusinersen exposure and clinical response, data from subjects with infantile-onset SMA (subjects <6 months of age at diagnosis or symptom onset) were used. Analyses were conducted to characterize a quantitative PK/PD relationship for nusinersen and to determine if higher nusinersen exposure is associated with additional efficacy in the infantile-onset SMA population.

nusinersen
attainment of motor milestones ([1]; 12 mg loading doses versus 6 mg loading doses on Days 1, 15, 85, infantile-onset SMA): earlier and greater improvement
correlation between nusinersen CSF exposure and motor function ([1]; 14 subjects with infantile-onset SMA, exploratory exposure-response analysis): statistically significant positive correlation
correlation between CSF Ctrough and total motor milestones scores ([1]; infantile- or later-onset SMA, 12 mg as 4 loading doses then every 4 months, preliminary analysis, data not shown): positive correlation
improvement in motor function ([1]; more frequent dosing: 12 mg loading Days 1, 15, 29, 64, 12 mg maintenance every 4 months, infantile-onset SMA): Greater improvement
plasma pNf-H after treatment initiation [2]: rapid decline followed by stabilization
safety of 28 and 50 mg doses [3]: support the use of these doses
CSF Ctrough that will achieve 90% of the maximum observed response [4]: 23 ng/mL
maximum mean [SD] CSF Ctrough [5]: 31.3 [24.8] ng/mL
